In US20260265252A1, “SOLID STATE FORMS OF IMIPRIDONE DERIVATIVE” (CHIMERIX, INC., priority 2024, published 2026):
Where a name gives a salt, the structure may show the parent alone.

What was measured:
[1] = Dynamic vapor sorption (DVS) water uptake; assay type: physicochemical; settings: for total water uptake / water uptake: DVS; for hygroscopicity: characterised by DVS water uptake
Excerpt: Dynamic Vapor Sorption (DVS)
Vapor sorption data were collected on a Surface Measurement System DVS Intrinsic instrument. Samples were not dried prior to analysis. Sorption and desorption data were collected over the stated range from at 10% RH increments under a nitrogen purge. The equilibrium criterion used […]

[2] = Relative humidity (RH) experiments / exposure to moisture, solid form change; assay type: physicochemical; settings: for form change: exposure to moisture / relative humidity (RH) experiments
Excerpt: The three batches of Compound I (ONC206·2HCl) manufactured to date are described below. The first two processes consistently produced Form 1 (i.e., desolvated anhydrous form, Form 1).

[3] = Solid form stability at ambient conditions; assay type: physicochemical
[4] = tested on: diffuse midline glioma, H3 K27M-mutant (DMG H3K27M); settings: patients with diffuse midline glioma; cited from earlier work

Row | total water uptake [1] [%] | total water uptake ([1]; moles of water) | hygroscopicity [1] | water uptake ([1]; relative humidity of up to 95%) [%] | Compound | also measured
1 | 0.3 | < 0.1 mol | non-hygroscopic | 0.3 | O=C1C2=C(CCN(Cc3ccccc3)C2)N2CCN=C2N1Cc1ccc(F)cc1F [Compound I Besylate Form A, 7-benzyl-4-(2,4-difluorobenzyl)-2,4,6,7,8,9-hexahydroimidazo[1,2-a]pyrido[3,4-e]pyrimidin-5(1H)-one] | –
2 | 7.5 | ~ 2.2 moles | hygroscopic | – | O=C1C2=C(CCN(Cc3ccccc3)C2)N2CCN=C2N1Cc1ccc(F)cc1F [Compound I Form 1, 7-benzyl-4-(2,4-difluorobenzyl)-2,4,6,7,8,9-hexahydroimidazo[1,2-a]pyrido[3,4-e]pyrimidin-5(1H)-one] | form change [2]: tends to convert into Form 2; hygroscopicity ([2]; statement in Example 1): hygroscopic; water uptake ([1]; relative humidity of 65% to 85%): 6.7%; water uptake ([1]; relative humidity of 85% to 95%): 0.3%; water uptake ([1]; relative humidity of up to 65%): 0.5%
3 | 2.5 | ~ 0.7 moles | hygroscopic | – | O=C1C2=C(CCN(Cc3ccccc3)C2)N2CCN=C2N1Cc1ccc(F)cc1F [Compound I Form 2, 7-benzyl-4-(2,4-difluorobenzyl)-2,4,6,7,8,9-hexahydroimidazo[1,2-a]pyrido[3,4-e]pyrimidin-5(1H)-one] | form change [2]: no form change was observed; water uptake ([1]; relative humidity of 5% to 25%): 1.8%; water uptake ([1]; relative humidity of 25% to 95%): 0.6%
4 | 0.3 | < 0.1 mol | non-hygroscopic | 0.3 | O=C1C2=C(CCN(Cc3ccccc3)C2)N2CCN=C2N1Cc1ccc(F)cc1F [Compound I Form A, 7-benzyl-4-(2,4-difluorobenzyl)-2,4,6,7,8,9-hexahydroimidazo[1,2-a]pyrido[3,4-e]pyrimidin-5(1H)-one] | –
5 | 0.7 | 0.1 mol | slightly hygroscopic | 0.7 | O=C1C2=C(CCN(Cc3ccccc3)C2)N2CCN=C2N1Cc1ccc(F)cc1F [Compound I Fumarate Form A, 7-benzyl-4-(2,4-difluorobenzyl)-2,4,6,7,8,9-hexahydroimidazo[1,2-a]pyrido[3,4-e]pyrimidin-5(1H)-one] | –
6 | – | – | – | – | O=C1C2=C(CCN(Cc3ccccc3)C2)N2CCN=C2N1Cc1ccc(F)cc1F [Compound I Material 14, 7-benzyl-4-(2,4-difluorobenzyl)-2,4,6,7,8,9-hexahydroimidazo[1,2-a]pyrido[3,4-e]pyrimidin-5(1H)-one] | stability of the solid form [3]: metastable
7 | 2.5 | 1.3 mol | slightly hygroscopic | – | O=C1C2=C(CCN(Cc3ccccc3)C2)N2CCN=C2N1Cc1ccc(F)cc1F [Compound I Sulfate Form A, 7-benzyl-4-(2,4-difluorobenzyl)-2,4,6,7,8,9-hexahydroimidazo[1,2-a]pyrido[3,4-e]pyrimidin-5(1H)-one] | water uptake ([1]; relative humidity of up to 96%): 2.5%
8 | 1.3 | 0.4 mol | slightly hygroscopic | – | O=C1C2=C(CCN(Cc3ccccc3)C2)N2CCN=C2N1Cc1ccc(F)cc1F [Compound I Tosylate Form A, 7-benzyl-4-(2,4-difluorobenzyl)-2,4,6,7,8,9-hexahydroimidazo[1,2-a]pyrido[3,4-e]pyrimidin-5(1H)-one] | water uptake ([1]; relative humidity of up to 96%): 1.3%
9 | – | – | – | – | Cc1ccccc1CN1C(=O)C2=C(CCN(Cc3ccccc3)C2)N2CCN=C12 [ONC201] | tumor regressions [4]: induced durable tumor regressions
